Experimental data reported in US9657013B2, “Inhibitors of hepatitis B virus covalently closed circular DNA formation and their method of use” (priority 2012, dated 2017).

Key:
HBV cccDNA = assay: cccDNA inhibition assay (Southern blot of Hirt DNA); format: cell-based, hepatitis B virus; details: for inhibition at 3 µM / inhibition at 10 µM / inhibition at 30 µM / inhibition at 0.3 µM / inhibition at 1 µM: Hepatitis B virus, read-out: cccDNA inhibition % Reduction; for inhibition at 30 µM: Concentration 30 μM; for inhibition at 0.3 µM: Concentration 0.3 μM
Procedure: Cell cultures: HepG2.2.15 cells were maintained in DMEM/F12 medium (Mediatech, Manassas, Va.) supplemented with 10% fetal bovine serum, 100 U/ml penicillin and 100 μg/ml streptomycin, plus 400 μg/ml G418. Tetracycline inducible HBV producer cells, specifically HepDE19 and HepDES19 cells, were maintained in the same way as HepG2.2.15, but with the addition of 1 μg/ml tetracycline (Guo, H., D. Jiang, T. Zhou, A. Cuconati, T. M. Block, and J. T. Guo. 2007). To initiate HBV replication and cccDNA formation in HepDE19 and HepDES19 cells, tetracycline was withdrawn from the culture medium and the cells were cultured for the indicated time period.
Viral nucleic acid analysis: Total cellular RNA was extracted with TRIzol reagent (Invitrogen, Grand Island, N.Y.) by following manufacturer's directions. Ten microgram of total cellular RNA was resolved in 1.5% agarose gel containing 2.2 M formaldehyde and transferred onto Hybond-XL membrane (GE Healthcare, Piscataway, N.J.) in 20×SSC buffer. Intracellular hepadnaviral core DNA and cccDNA (Hirt DNA) were extracted as described previously (Guo, H., D. Jiang, T. Zhou, A. Cuconati, T. M. Block, and J. T. Guo. 2007. Guo, H., D. Jiang, T. Zhou, A. Cuconati, T. M. Block, and J. T. Guo. 2007. Guo, H., R. Mao, T. M. Block, and J. T. Guo. 2010. Guo, H., W. S. Mason, C. E. Aldrich, J. R. Saputelli, D. S. Miller, A. R. Jilbert, and J. E. Newbold. 2005). Half of the DNA samples recovered from one well of a 6-well-plate were resolved by electrophoresis into a 1.2% agarose gel and blotted onto Hybond-XL membrane. Membranes were probed with either an α-^32P-UTP (800 Ci/mmol, Perkin Elmer) labeled hepadnaviral minus (detecting DNA) or plus strand (detecting RNA) specific full-length riboprobe and exposed to a phosphorimager screen (Fuji Film, Tokyo, Japan). Hybridization signals were visualized by Typhoon FLA-7000 (GE Healthcare) and quantified with ImageQuantTL software (GE Healthcare). […]
Identification of compounds that inhibits cccDNA accumulation in HepDES19 cells: Compounds were tested on HepDES19 cells, which have a higher level of cccDNA production than HepDE19 cells (Guo, H., D. Jiang, T. Zhou, A. Cuconati, T. M. Block, and J. T. Guo. 2007). Briefly, after withdrawal of tetracycline, HepDES19 cells were left untreated, or were treated with compound at serial concentrations; tetracycline-free media was changed every other day with fresh compound supplementation. The concentration of DMSO in all experimental groups was normalized at 0.1%. The cells were harvested at day 12, viral RNA (top panel), core DNA (middle panel), and Hirt DNA (DP-rcDNA and cccDNA) (bottom panels) were extracted and analyzed by Northern blot and Southern blot, respectively. Shorter exposure of the Hirt DNA blot was used for the quantitative determination of DP-rcDNA signals. […] The reduction between DP-rcDNA and cccDNA was proportional compared with untreated control. […] Liu, C. P. Hu, and C. Chang. 2005. Guo, H., T. Zhou, D. Jiang, A. Cuconati, G. H. Xiao, T. M. Block, and J. T. Guo. 2007. Zhou, T., H. Guo, J. T. Guo, A. Cuconati, A. Mehta, and T. M. Block. 2006).

[1] = cytotoxicity assay (MTT, CC50); format: cell-based; details: human, HepDE19 cells
Procedure: (§1) Cell plates were then incubated with compound dilutions and controls as described above, and addition of 3-[4,5-dimethylthiazol-2-yl]-2,5-diphenyltetrazolium bromide (MTT, Sigma-Aldrich) was added to a final concentration of 0.5 mg/ml (Mosmann, T. 1983). Plates were again incubated at 37° C. for 4 hrs, after which 10% SDS/0.01N HCl was added to each well in a volume equal to the medium (100 μl), followed by overnight incubation. Absorbance was read in the Rainbow spectrophotometer (Tecan US Inc., Durham, N.C.) at 570 nm (reference wavelength of 630 nm), and analyzed with XLfit 4.0 as described above.

HepDE19 cells = assay: cytotoxicity assay (MTT, CC50); format: cell-based
Procedure: as §1

Structure (SMILES)	inhibition at 3 µM (HBV cccDNA; Concentration 3 μM)	inhibition at 10 µM (HBV cccDNA; Concentration 10 μM)	inhibition at 30 µM (HBV cccDNA)	CC50 [1]	also measured
O=C(CN(c1cc(C(F)(F)F)ccc1Cl)S(=O)(=O)c1ccc(Cl)cc1)NCc1ccncc1 [CCC-Lu25-32]	95%	95%	95%	> 50 µM	–
CN(Cc1ccccc1)S(=O)(=O)c1ccc(C(=O)Nc2ccc3ncsc3c2)cc1 [IHVR-13004]	50%	–	–	34.1 µM	inhibition at 0.3 µM (HBV cccDNA): 0%; inhibition at 1 µM (HBV cccDNA; Concentration 1 μM): 0%
Cc1cc2cc(NC(=O)c3ccc(S(=O)(=O)N(C)Cc4ccccc4)cc3)ccc2[nH]1 [IHVR-13003-1]	3%	5%	10%	> 50 µM	–
CN1CCN(c2ccc(CNC(=O)CN(c3cc(C(F)(F)F)ccc3Cl)S(=O)(=O)c3ccccc3)cc2)CC1 [IHVR-29022]	30%	–	–	49.5 µM	–
CC(C)(C)CC(=O)NCCNC(=O)CN(c1cc(C(F)(F)F)ccc1F)S(=O)(=O)c1ccccc1 [CCC-Lu25-56]	70%	–	–	28.4 µM	–
O=C(CN(c1cc(C(F)(F)F)ccc1Cl)S(=O)(=O)c1ccc(F)cc1)NCc1ccncc1 [CCC-Lu25-20]	20%	60%	70%	> 50 µM	–
CC(C)(C)OC(=O)N1CCC(CNC(=O)CN(c2cc(C(F)(F)F)ccc2Cl)S(=O)(=O)c2ccccc2)CC1 [CCC-Lu25-55]	95%	–	–	19.1 µM	–
O=C(CN(c1cc(C(F)(F)F)ccc1Cl)S(=O)(=O)c1ccccc1)NCc1ccncc1 [CCC-Lu25-22]	–	70%	70%	> 50 µM	cccDNA inhibition % Reduction (HBV cccDNA; Concentration 3 μM, 3 µM): 40%
CN(Cc1ccccc1)S(=O)(=O)c1ccc(C(=O)NCc2ccncc2)cc1 [IHVR-13009]	15%	15%	30%	> 50 µM	–
O=C(CN(c1cc(C(F)(F)F)ccc1Cl)S(=O)(=O)c1ccc(C(F)(F)F)cc1)NCc1ccncc1 [CCC-Lu25-42]	90%	95%	–	> 50 µM	inhibition at 1 µM (HBV cccDNA; Concentration 1 μM): 20%
Cc1nc2cc(NC(=O)CN(c3cc(C(F)(F)F)ccc3Cl)S(=O)(=O)c3ccccc3)ccc2s1 [IHVR-13102]	30%	80%	30%	> 50 µM	–
Cc1nc2ccc(NC(=O)c3ccc(S(=O)(=O)N(C)Cc4ccccc4)cc3)cc2s1 [IHVR-13006]	50%	–	–	5.9 µM	inhibition at 0.3 µM (HBV cccDNA): 2%; inhibition at 1 µM (HBV cccDNA; Concentration 1 μM): 50%
O=C(CN(c1cc(C(F)(F)F)ccc1Cl)S(=O)(=O)c1ccc(C(F)(F)F)cc1Cl)NCc1ccncc1 [CCC-Lu25-50]	95%	–	–	30.2 µM	–
O=C(CN(c1cc(C(F)(F)F)ccc1Br)S(=O)(=O)c1ccccc1)NCc1ccncc1 [CCC-1002-2]	30%	90%	–	> 50 µM	inhibition at 1 µM (HBV cccDNA; Concentration 1 μM): 30%
O=C(NCc1ccncc1)c1cc2ccccc2n1S(=O)(=O)c1ccccc1 [IHVR 13022-1]	60%	65%	–	> 50 µM	inhibition at 1 µM (HBV cccDNA; Concentration 1 μM): 50%
O=C(NCc1ccncc1)C1CCCN1S(=O)(=O)c1ccccc1 (stereo not drawn) [IHVR-13108]	70%	50%	–	> 50 µM	inhibition at 1 µM (HBV cccDNA; Concentration 1 μM): 10%
Cc1ccc(S(=O)(=O)N(CC(=O)NCc2ccncc2)c2cc(C(F)(F)F)ccc2Cl)cc1 [CCC-Lu25-38]	95%	95%	95%	> 50 µM	–
O=C(CN(c1cc(C(F)(F)F)ccc1F)S(=O)(=O)c1ccccc1)NCc1ccncc1 [CCC-1022-3]	50%	75%	–	> 50 µM	inhibition at 1 µM (HBV cccDNA; Concentration 1 μM): 20%
CN1CCN(c2cccc(CNC(=O)CN(c3cc(C(F)(F)F)ccc3Cl)S(=O)(=O)c3ccccc3)c2)CC1 [IHVR-29023]	30%	–	–	38.7 µM	–
O=C(CN(c1cc(C(F)(F)F)ccc1Cl)S(=O)(=O)c1ccccc1)NCc1cccnc1 [CCC-Lu25-51]	80%	–	–	> 50 µM	–
O=C(CN(c1cc(C(F)(F)F)ccc1Cl)S(=O)(=O)c1ccccc1)N1CCc2cnccc2C1 [CCC-Lu25-54]	50%	–	–	> 50 µM	–
CN1CCC(CNC(=O)CN(c2cc(C(F)(F)F)ccc2Cl)S(=O)(=O)c2ccccc2)CC1 [CCC-Lu25-61-1]	30%	–	–	> 50 µM	–
COc1ccc(S(=O)(=O)N(CC(=O)NCc2ccncc2)c2cc(C(F)(F)F)ccc2Cl)cc1 [CCC-Lu25-39]	95%	95%	95%	49.2 µM	–
O=C(CN(c1cc(Cl)ccc1F)S(=O)(=O)c1ccccc1)NCc1ccncc1 [CCC-Lu25-41]	10%	30%	40%	> 50 µM	–
O=C(CN(c1cc(C(F)(F)F)ccc1Cl)S(=O)(=O)c1ccccc1)NCc1ccncn1 [CCC-Lu25-53]	70%	–	–	> 50 µM	–
C[N+]1(C)CCC(CNC(=O)CN(c2cc(C(F)(F)F)ccc2Cl)S(=O)(=O)c2ccccc2)CC1 [CCC-Lu25-61-2]	30%	–	–	> 50 µM	–
O=C(CN(c1cc(C(F)(F)F)ccc1Cl)S(=O)(=O)c1ccccc1)NCc1cncnc1 [CCC-Lu25-52]	80%	–	–	> 50 µM	–
O=C(CN(c1cc(C(F)(F)F)ccc1Cl)S(=O)(=O)c1ccccc1)NCc1ccncc1 [IHVR-13106]	–	–	–	–	cccDNA inhibition % Reduction (HBV cccDNA; Concentration 1 μM, 1 µM): 0%; cccDNA inhibition % Reduction (HBV cccDNA; Concentration 3 μM, 3 µM): 70%; cccDNA inhibition % Reduction (HBV cccDNA; Concentration 10 μM, 10 µM): 80%; CC50 (HepDE19 cells): > 50 µM
